Biological target: GluA1o-γ8 (GRIA1o-CACNG8 fusion construct; TARP γ8 dependent AMPA receptor) (Homo sapiens (Human), UniProt P42261+Q8WXS5)
Assay: Calcium flux assay (FLIPR), inhibition of glutamate response of GluA1o-γ8 channel
Type: cell-based
Conditions: HEK293 cells stably expressing GRIA1o-CACNG8 fusion; 15 μM glutamate; pIC50 = negative log of IC50 in molar; read-out: GluR1-γ8 (pIC50) (converted)
Summary of the method: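 Potency is the midpoint of a four-parameter logistic fit to control-normalized FLIPR calcium responses elicited by 15 μM glutamate. Stable HEK293 cells carried a fused GluA1o-γ8 construct and were preincubated with compound and calcium dye in pH 7.4 HEPES buffer.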

Sequence of GluA1o-γ8 (GRIA1o-CACNG8 fusion construct; TARP γ8 dependent AMPA receptor) (P42261 other isoform, or with tags, fused parts or gaps): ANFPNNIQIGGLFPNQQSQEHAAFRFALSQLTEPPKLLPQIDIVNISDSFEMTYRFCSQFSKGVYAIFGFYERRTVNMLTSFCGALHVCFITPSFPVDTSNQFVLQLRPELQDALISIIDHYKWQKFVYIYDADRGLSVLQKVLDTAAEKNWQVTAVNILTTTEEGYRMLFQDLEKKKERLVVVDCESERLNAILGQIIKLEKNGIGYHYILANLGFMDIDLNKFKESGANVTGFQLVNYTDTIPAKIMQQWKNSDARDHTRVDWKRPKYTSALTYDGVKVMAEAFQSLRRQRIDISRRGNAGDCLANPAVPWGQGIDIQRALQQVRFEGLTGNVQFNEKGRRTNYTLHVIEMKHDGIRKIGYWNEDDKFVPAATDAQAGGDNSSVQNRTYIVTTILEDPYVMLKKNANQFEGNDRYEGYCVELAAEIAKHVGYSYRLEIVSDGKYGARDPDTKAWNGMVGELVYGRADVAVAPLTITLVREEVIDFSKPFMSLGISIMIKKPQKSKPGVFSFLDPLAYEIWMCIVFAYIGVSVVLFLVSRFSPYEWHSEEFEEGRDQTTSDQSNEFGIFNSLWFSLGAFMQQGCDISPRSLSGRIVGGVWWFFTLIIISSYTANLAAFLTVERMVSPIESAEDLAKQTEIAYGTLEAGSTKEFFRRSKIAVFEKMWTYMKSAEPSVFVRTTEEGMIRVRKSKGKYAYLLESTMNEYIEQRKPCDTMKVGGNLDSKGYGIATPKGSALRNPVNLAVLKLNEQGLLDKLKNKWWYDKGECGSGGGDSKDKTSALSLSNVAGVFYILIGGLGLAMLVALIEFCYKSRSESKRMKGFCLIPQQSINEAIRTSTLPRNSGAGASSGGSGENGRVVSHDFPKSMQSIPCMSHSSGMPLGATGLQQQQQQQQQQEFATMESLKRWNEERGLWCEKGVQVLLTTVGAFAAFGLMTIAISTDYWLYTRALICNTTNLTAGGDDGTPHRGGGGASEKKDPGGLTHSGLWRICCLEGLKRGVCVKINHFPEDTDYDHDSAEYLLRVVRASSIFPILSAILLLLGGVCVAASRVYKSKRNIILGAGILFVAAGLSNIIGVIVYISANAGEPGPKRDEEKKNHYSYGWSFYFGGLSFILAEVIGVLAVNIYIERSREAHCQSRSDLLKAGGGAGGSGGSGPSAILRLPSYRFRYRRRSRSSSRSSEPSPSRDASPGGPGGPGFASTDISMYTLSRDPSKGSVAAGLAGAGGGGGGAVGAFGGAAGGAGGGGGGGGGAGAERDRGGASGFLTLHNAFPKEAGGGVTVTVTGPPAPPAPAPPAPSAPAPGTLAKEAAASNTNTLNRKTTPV

| IC50 | Compound |
| --- | --- |
| 63.1 nM | O=C1Cc2cc(-c3c(C4CCCC4)nn4c(N5CCOCC5)nccc34)ccc2N1 [Example 203, 5-(2-Cyclopentyl-7-morpholino-pyrazolo[1,5-c]pyrimidin-3-yl)indolin-2-one] |
| 6.31 nM | CNc1nccn2c(-c3ccc4[nH]c(=O)[nH]c4c3)c(-c3ccc(F)cc3)nc12 [Example 104, 5-[2-(4-Fluorophenyl)-8-(methylamino)imidazo[1,2-a]pyrazin-3-yl]-1,3-dihydrobenzimidazol-2-one] |
| 2.51 nM | O=C1Cc2cc(-c3c(C(=O)c4ccccc4)nc4c(N5CCS(=O)(=O)CC5)nccn34)ccc2N1 [Example 157, 5-[2-Benzoyl-8-(1,1-dioxo-1,4-thiazinan-4-yl)imidazo[1,2-a]pyrazin-3-yl]indolin-2-one] |
| 0.0631 nM | COC1CCN(c2nccc3c(-c4ccc5[nH]c(=O)sc5c4)c(-c4ccccc4)nn23)CC1 [Example 213, 6-[7-(4-Methoxy-1-piperidyl)-2-phenyl-pyrazolo[1,5-c]pyrimidin-3-yl]-3H-1,3-benzothiazol-2-one] |
| 1.58 nM | O=C1Cc2cc(-c3c(C(=O)c4ccccc4)nc4c(N5CCC(O)CC5)nccn34)ccc2N1 [Example 154, 5-[2-Benzoyl-8-(4-hydroxy-1-piperidyl)imidazo[1,2-a]pyrazin-3-yl]indolin-2-one] |
| 0.316 nM | O=c1[nH]c2ccc(-c3c(-c4ccc(F)cc4)nc4c(N5CCOCC5)nccn34)cc2s1 [Example 118, 6-[2-(4-Fluorophenyl)-8-morpholino-imidazo[1,2-a]pyrazin-3-yl]-3H-1,3-benzothiazol-2-one] |
| 0.794 nM | CC(=O)N1CCN(c2nccn3c(-c4ccc5[nH]ncc5c4)c(Cc4ccccc4)nc23)CC1 [Example 18, 1-[4-[2-Benzyl-3-(1H-indazol-5-yl)imidazo[1,2-a]pyrazin-8-yl]piperazin-1-yl]ethanone] |
| 0.398 nM | O=C1Cc2cc(-c3c(-c4ccccc4)nc4c(N5CCC(CCF)CC5)nccn34)ccc2N1 [Example 77, 5-[8-[4-(2-Fluoroethyl)-1-piperidyl]-2-phenyl-imidazo[1,2-a]pyrazin-3-yl]indolin-2-one] |
| 631 nM | Fc1ccc(-c2nc3c(N4CCOCC4)nccn3c2-c2ccc3[nH]cnc3c2)cc1 [Example 31, 4-[3-(1H-Benzimidazol-5-yl)-2-(4-fluorophenyl)imidazo[1,2-a]pyrazin-8-yl]morpholine] |
| 1 nM | O=C1Cc2cc(-c3c(Cc4ccccc4)nc4c(N5CCOCC5)nccn34)ccc2N1 [Example 20, 5-(2-Benzyl-8-morpholino-imidazo[1,2-a]pyrazin-3-yl)indolin-2-one] |
| 0.2 nM | CC1COCCN1c1nccc2c(-c3ccc4c(c3)CC(=O)N4)c(-c3ccc(F)cc3)nn12 (stereo not shown) [Example 177, 5-[2-(4-Fluorophenyl)-7-(3-methylmorpholin-4-yl)pyrazolo[1,5-c]pyrimidin-3-yl]indolin-2-one] |
| 1.26 nM | O=C(c1ccccc1)c1nc2c(N3CCOCC3)nccn2c1-c1ccc2[nH]c(=O)oc2c1 [Example 156, 6-(2-Benzoyl-8-morpholino-imidazo[1,2-a]pyrazin-3-yl)-3H-1,3-benzoxazol-2-one] |
| 398 nM | CC(C)c1nn2c(N3CCOCC3)nccc2c1-c1ccc2[nH]ncc2c1 [Example 238, 4-[3-(1H-Indazol-5-yl)-2-isopropyl-pyrazolo[1,5-c]pyrimidin-7-yl]morpholine] |
| 251 nM | Cc1nccn2c(-c3ccc4c(c3)CC(=O)N4)c(-c3ccc(F)cc3)nc12 [Example 133, 5-[2-(4-Fluorophenyl)-8-methyl-imidazo[1,2-a]pyrazin-3-yl]indolin-2-one] |
| 200 nM | CC(C)(C)c1nn2c(N3CCC(O)CC3)nccc2c1-c1ccc2c(c1)CC(=O)N2 [Example 181, 5-[2-tert-Butyl-7-(4-hydroxy-1-piperidyl)pyrazolo[1,5-c]pyrimidin-3-yl]indolin-2-one] |
| 12.6 nM | O=C(c1ccccc1)c1nc2c(N3CCOCC3)nccn2c1-c1ccc(O)cc1 [Example 151, [3-(4-Hydroxyphenyl)-8-morpholino-imidazo[1,2-a]pyrazin-2-yl]-phenyl-methanone] |
| 0.2 nM | CC1(O)CCN(c2nccc3c(-c4ccc5c(c4)CC(=O)N5)c(-c4ccc(F)cc4)nn23)CC1 [Example 186, 5-[2-(4-Fluorophenyl)-7-(4-hydroxy-4-methyl-1-piperidyl)pyrazolo[1,5-c]pyrimidin-3-yl]indolin-2-one] |
| 20 nM | CC(C)Oc1nccn2c(-c3ccc4c(c3)CC(=O)N4)c(-c3ccc(F)cc3)nc12 [Example 129, 5-[2-(4-Fluorophenyl)-8-isopropoxy-imidazo[1,2-a]pyrazin-3-yl]indolin-2-one] |

| IC50 | Compound |
| --- | --- |
| 39800 nM | O=C1Cc2cc(-c3c(C4CC4)nn4cnc(C(F)(F)F)cc34)ccc2N1 [Example 228, 5-[2-Cyclopropyl-5-(trifluoromethyl)pyrazolo[1,5-c]pyrimidin-3-yl]indolin-2-one] |
| 1.58 nM | O=C1Cc2cc(-c3c(-c4ccc(F)cc4)nc4c(N5CC[C@@H](O)C5)nccn34)ccc2N1 (single isomer, unassigned) [Example 52, (R*)-5-[2-(4-Fluorophenyl)-8-(3-hydroxypyrrolidin-1-yl)imidazo[1,2-a]pyrazin-3-yl]indolin-2-one] |
| 7.94 nM | O=C1Cc2cc(-c3c(C4CCCCC4)nc4c(N5CCOCC5)nccn34)ccc2N1 [Example 56, 5-(2-Cyclohexyl-8-morpholino-imidazo[1,2-a]pyrazin-3-yl)indolin-2-one] |
| 5.01 nM | O=C1Cc2cc(-c3c(-c4ccc(F)cc4)nc4c(N5CC6(COC6)C5)nccn34)ccc2N1 [Example 24, 5-[2-(4-Fluorophenyl)-8-(6-oxa-2-azaspiro[3.3]heptan-2-yl)imidazo[1,2-a]pyrazin-3-yl]indolin-2-one] |
| 200 nM | Oc1ccc(-c2c(C3CCCCC3)nc3c(N4CCOCC4)nccn23)cc1 [Example 85, 4-(2-Cyclohexyl-8-morpholino-imidazo[1,2-a]pyrazin-3-yl)phenol] |
| 251 nM | O=C1Cc2cc(-c3c(-c4ccc(F)cc4)nc4c(NC5CCNC5=O)nccn34)ccc2N1 (stereo not shown) [Example 40, 5-[2-(4-Fluorophenyl)-8-[(2-oxopyrrolidin-3-yl)amino]imidazo[1,2-a]pyrazin-3-yl]indolin-2-one] |
| 0.251 nM | O=C1Cc2cc(-c3c(-c4ccccc4)nc4c(N5CCC(CF)CC5)nccn34)ccc2N1 [Example 76, 5-[8-[4-(Fluoromethyl)-1-piperidyl]-2-phenyl-imidazo[1,2-a]pyrazin-3-yl]indolin-2-one] |
| 15.8 nM | O=S1(=O)Cc2cc(-c3c(-c4ccc(F)cc4)nc4c(N5CC6(COC6)C5)nccn34)ccc2N1 [Example 108, 5-(2-(4-Fluorophenyl)-8-(2-oxa-6-azaspiro[3.3]heptan-6-yl)imidazo[1,2-a]pyrazin-3-yl)-1,3-dihydrobenzo[c]isothiazole 2,2-dioxide] |
| 0.316 nM | O=C1Cc2cc(-c3c(-c4ccc(F)cc4)nc4c(N5CCCC(O)C5)nccn34)ccc2N1 (stereo not shown) [Example 54, 5-[2-(4-Fluorophenyl)-8-(3-hydroxy-1-piperidyl)imidazo[1,2-a]pyrazin-3-yl]indolin-2-one] |
| 100 nM | O=C1NCc2cc(-c3c(-c4ccc(F)cc4)nc4c(N5CCOCC5)nccn34)ccc2N1 [Example 120, 6-[2-(4-Fluorophenyl)-8-morpholino-imidazo[1,2-a]pyrazin-3-yl]-3,4-dihydro-1H-quinazolin-2-one] |
| 1.26 nM | O=C1CN(c2nccn3c(-c4ccc5[nH]c(=O)[nH]c5c4)c(-c4ccc(F)cc4)nc23)CCN1 [Example 34, 5-[2-(4-Fluorophenyl)-8-(3-oxopiperazin-1-yl)imidazo[1,2-a]pyrazin-3-yl]-1,3-dihydrobenzimidazol-2-one] |
| 79.4 nM | O=C1Cc2cc(-c3c(-c4ccc(F)cc4)nc4c(N5CCC(=NO)CC5)nccn34)ccc2N1 [Example 155, 5-[2-(4-Fluorophenyl)-8-(4-hydroxyimino-1-piperidyl)imidazo[1,2-a]pyrazin-3-yl]indolin-2-one] |
| 2 nM | O=S1(=O)Cc2cc(-c3c(-c4ccc(F)cc4)nn4c(N5CCOCC5)nccc34)ccc2N1 [Example 178, 5-[2-(4-Fluorophenyl)-7-morpholino-pyrazolo[1,5-c]pyrimidin-3-yl]-1,3-dihydro-2,1-benzothiazole 2,2-dioxide] |
| 20 nM | O=C(Nc1ccccc1)c1nc2c(N3CCOCC3)nccn2c1-c1ccc(O)cc1 [Example 138, 3-(4-Hydroxyphenyl)-8-morpholino-N-phenyl-imidazo[1,2-a]pyrazine-2-carboxamide] |
| 1.58 nM | CC(=O)N1CCN(c2nccn3c(-c4ccc5[nH]c(=O)[nH]c5c4)c(-c4ccc(F)cc4)nc23)CC1 [Example 14, 5-[8-(4-Acetylpiperazin-1-yl)-2-(4-fluorophenyl)imidazo[1,2-a]pyrazin-3-yl]-1,3-dihydrobenzimidazol-2-one] |
| 1.58 nM | O=C1Cc2cc(-c3c(-c4ccc(F)cc4)nc4c(N5CC(F)(F)C5)nccn34)ccc2N1 [Example 60, 5-[8-(3,3-Difluoroazetidin-1-yl)-2-(4-fluorophenyl)imidazo[1,2-a]pyrazin-3-yl]indolin-2-one] |
| 25.1 nM | CC(=O)N1CCN(c2nccn3c(-c4ccc(O)cc4)c(Cc4ccccc4)nc23)CC1 [Example 23, 1-[4-[2-Benzyl-3-(4-hydroxyphenyl)imidazo[1,2-a]pyrazin-8-yl]piperazin-1-yl]ethanone] |
| 316 nM | CC(C)(C)c1nn2c(N3CC4(COC4)C3)nccc2c1-c1ccc2c(c1)CC(=O)N2 [Example 199, 5-[2-tert-Butyl-7-(6-oxa-2-azaspiro[3.3]heptan-2-yl)pyrazolo[1,5-c]pyrimidin-3-yl]indolin-2-one] |

| Compound | IC50 |
| --- | --- |
| O=C1Cc2cc(-c3c(-c4ccccc4)nc4c(N5CC6CC(C5)O6)nccn34)ccc2N1 [Example 79, 5-[8-(6-Oxa-3-azabicyclo[3.1.1]heptan-3-yl)-2-phenyl-imidazo[1,2-a]pyrazin-3-yl]indolin-2-one] | 0.501 nM |
